Measured values: US20240398768A1, “METHODS OF TREATING SOLID TUMOR USING HETEROAROMATIC MACROCYCLIC ETHER COMPOUNDS” (Nuvalent, Inc., priority 2021, published 2024)
Marks after values point to notes of the source that are not given here.

Key:
CYP3A4 [1] = molecular target: T1, CYP3A4 (Homo sapiens, UniProt P08684); assay: CYP inhibition; assay type: in vitro ADME; details: for IC50: CYP3A4 inhibition
CYP1A2 = molecular target: T2, CYP1A2 (Homo sapiens, UniProt P05177); assay: CYP substrate assessment; assay type: in vitro ADME
T2 sequence (P05177 1-516): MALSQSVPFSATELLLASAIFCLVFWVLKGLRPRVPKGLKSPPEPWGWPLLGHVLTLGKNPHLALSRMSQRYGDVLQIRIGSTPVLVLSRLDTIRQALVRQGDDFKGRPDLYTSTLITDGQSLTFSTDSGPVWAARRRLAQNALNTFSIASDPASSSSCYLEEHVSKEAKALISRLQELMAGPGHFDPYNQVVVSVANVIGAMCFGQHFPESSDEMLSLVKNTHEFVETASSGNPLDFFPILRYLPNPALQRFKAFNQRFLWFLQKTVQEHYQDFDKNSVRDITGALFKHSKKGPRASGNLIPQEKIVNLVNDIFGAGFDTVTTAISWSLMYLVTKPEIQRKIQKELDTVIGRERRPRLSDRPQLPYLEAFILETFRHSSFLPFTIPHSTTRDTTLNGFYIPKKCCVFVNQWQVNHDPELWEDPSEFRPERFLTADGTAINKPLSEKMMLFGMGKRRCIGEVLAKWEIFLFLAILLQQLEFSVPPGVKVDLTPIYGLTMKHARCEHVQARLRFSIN

CYP3A4 [2] = molecular target: T1, CYP3A4; assay: CYP substrate assessment; assay type: in vitro ADME
[3] = tested on: Lu01-0414 PDX (SDC4-ROS1); assay: PDX efficacy model LU-01-0414; assay type: in vivo, mice; details: ROS1 PDX models of FIG. 2A-2C
[4] = Phase 1/2 clinical study: safety and tolerability; assay type: in vivo
Description: The Phase 1 portion of the study employ a BOIN design with 3+3 run-in to evaluate dose escalation. […] The safety profile is assessed based on physical examinations; ECOG PS; changes from baseline in laboratory parameters, ECGs, vital signs, and ophthalmic examination (baseline only and as clinically indicated); and the reporting of AEs. The DLT Observation Period is defined from first dose on day 1 of cycle 1 (C1D1) through to the end of the first cycle (28-day cycle period).
Each cycle of treatment is 28 days.

CYP2C8 = molecular target: T3, CYP2C8 (Homo sapiens, UniProt P10632); assay: CYP substrate assessment; assay type: in vitro ADME
T3 sequence (P10632 1-490): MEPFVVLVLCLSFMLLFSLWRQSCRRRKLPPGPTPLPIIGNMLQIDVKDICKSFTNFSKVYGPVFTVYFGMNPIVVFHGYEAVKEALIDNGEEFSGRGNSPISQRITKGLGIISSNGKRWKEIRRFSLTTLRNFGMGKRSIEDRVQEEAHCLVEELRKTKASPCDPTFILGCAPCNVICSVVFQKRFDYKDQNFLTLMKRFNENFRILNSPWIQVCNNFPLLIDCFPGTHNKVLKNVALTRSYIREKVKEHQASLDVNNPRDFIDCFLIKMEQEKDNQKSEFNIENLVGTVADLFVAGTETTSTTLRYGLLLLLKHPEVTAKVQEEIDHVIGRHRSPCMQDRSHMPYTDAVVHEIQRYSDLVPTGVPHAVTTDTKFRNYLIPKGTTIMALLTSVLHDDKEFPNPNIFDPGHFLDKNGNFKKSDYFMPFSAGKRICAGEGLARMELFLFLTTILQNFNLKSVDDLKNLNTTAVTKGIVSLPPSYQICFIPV

CYP2C9 = CYP2C9 (Homo sapiens, UniProt P11712); assay: CYP inhibition; assay type: in vitro ADME
[5] = Human free fraction in plasma; assay type: in vitro ADME; details: of the total plasma concentration
[6] = tested on: advanced ROS1-positive NSCLC and other advanced ROS1-positive solid tumors; assay: Phase 1/2 clinical study: antitumor activity; assay type: in vivo, human; details: for tumor change by RECIST 1.1: patient
[7] = twenty pts, 25-100 mg once daily
[8] = Prior Lorlatinib and/or Repotrectinib n = 18
[9] = ROS1 G2032R Resistance Mutation n = 9
[10] = ≥2 Prior ROS1 TKI and ≥1 Chemotherapy n = 17

T1 sequence (P08684 whole entry): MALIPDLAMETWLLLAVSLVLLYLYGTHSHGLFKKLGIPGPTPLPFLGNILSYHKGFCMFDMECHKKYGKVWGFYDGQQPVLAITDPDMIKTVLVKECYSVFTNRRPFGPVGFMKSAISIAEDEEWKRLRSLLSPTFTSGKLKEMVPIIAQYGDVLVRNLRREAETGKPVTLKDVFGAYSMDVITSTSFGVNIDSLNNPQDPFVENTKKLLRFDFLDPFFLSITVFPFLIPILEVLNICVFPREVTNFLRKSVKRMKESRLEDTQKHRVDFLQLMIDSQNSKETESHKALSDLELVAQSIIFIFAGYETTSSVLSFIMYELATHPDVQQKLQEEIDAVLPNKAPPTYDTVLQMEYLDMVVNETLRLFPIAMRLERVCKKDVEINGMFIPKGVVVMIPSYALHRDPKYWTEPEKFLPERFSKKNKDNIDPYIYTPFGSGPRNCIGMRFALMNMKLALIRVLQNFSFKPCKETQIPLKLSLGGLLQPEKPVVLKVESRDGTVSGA
Sequence of CYP2C9 (P11712 whole entry): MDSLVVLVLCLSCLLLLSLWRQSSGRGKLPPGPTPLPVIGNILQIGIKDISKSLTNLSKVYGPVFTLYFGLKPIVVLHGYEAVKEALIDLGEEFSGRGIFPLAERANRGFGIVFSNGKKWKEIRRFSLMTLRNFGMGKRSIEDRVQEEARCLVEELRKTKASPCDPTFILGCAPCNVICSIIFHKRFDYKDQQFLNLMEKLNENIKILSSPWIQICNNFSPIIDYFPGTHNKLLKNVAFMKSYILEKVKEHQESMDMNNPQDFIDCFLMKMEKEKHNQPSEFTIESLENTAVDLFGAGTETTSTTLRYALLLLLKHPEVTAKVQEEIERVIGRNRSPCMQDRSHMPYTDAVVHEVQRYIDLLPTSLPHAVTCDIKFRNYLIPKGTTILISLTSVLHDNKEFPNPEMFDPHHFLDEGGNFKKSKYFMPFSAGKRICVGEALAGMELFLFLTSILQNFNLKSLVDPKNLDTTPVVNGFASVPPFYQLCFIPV

With `CCn1ncc2c1-c1cnc(N)c(c1)O[C@H](C)c1cc(F)ccc1-c1nn(C)nc1C2` [Compound 1, (19R)-3-ethyl-16-fluoro-10,19-dimethyl-20-oxa-3,4,9,10,11,23-hexaazapentacyclo [19.3.1.0^2,^6.0^8,^12.0^13,^18]pentacosa-1 (24),2 (6),4,8,11,13,15,17,21 (25),22-decaen-22-amine] the “inhibitor of CYP3A4 (testosterone) and CYP3A4 (midazolam)” value (CYP3A4 [1]) was “potential inhibitor”, the IC50 (CYP3A4 [1]; midazolam) was 30 µM and the IC50 (CYP3A4 [1]; testosterone) was 62.7 µM. For the same molecule, the “metabolism contribution from CYP1A2” value (CYP1A2) was “potential for contributions”, the “substrate of CYP3A4” value (CYP3A4 [2]) was “substrate” and the body weight [3] was “No significant changes”. The “treatment discontinuation due to toxicity” value ([4]; data as of Sep. 13, 2022) was “No treatment was discontinued due to toxicity”, the “AEs leading to dose reduction or discontinuation” value ([4]; data of Sep. 13, 2022) was “no AEs leading to dose reduction or discontinuation” and the DLTs ([4]; data of Sep. 13, 2022) was “no observed DLTs”. For the same molecule, the “treatment-related SAEs” value ([4]; data of Sep. 13, 2022) was “no treatment-related SAEs”, the treatment-related dizziness ([4]; data of Sep. 13, 2022) was “no treatment-related dizziness” and the “tolerability (dizziness, orthostasis, paresthesia)” value ([4]; patient, 25 mg daily) was “well tolerated”. For the same molecule, the neurological toxicities ([4]; patient, 50 mg daily) was “No neurological toxicities”, the neurological toxicities ([4]; patient, 25 then 75 mg daily) was “without neurological toxicities” and the “DLTs, dose reductions, drug-related treatment discontinuations” value [4, 7] was “No DLTs, dose reductions, or drug-related treatment discontinuations”. For the same molecule, the “grade of treatment-related adverse events (TRAEs)” value [4, 7] was “grade 1”, the tolerability ([4]; up to 125 mg daily) was “well-tolerated” and the “metabolism contribution from CYP2C8” value (CYP2C8) was “potential for contributions”. The IC50 (CYP2C9) was 70.3 µM, the fraction unbound [5] was 0.206 and the “Best Response NE, patients” value ([6]; All Response-Evaluable n = 21) was 19^c. The “Best Response PD, patients” value ([6]; All Response-Evaluable n = 21) was 2, the “Best Response PR, patients” value ([6]; All Response-Evaluable n = 21) was 10^a and the “Best Response SD, patients” value ([6]; All Response-Evaluable n = 21) was 8. For the same molecule, the “ORR (RESIST 1.1)” value ([6]; All Response-Evaluable n = 21) was 48%, the “ORR (RESIST 1.1), number of patients” value ([6]; All Response-Evaluable n = 21) was 10 and the “Best Response NE, patients” value ([6]; CNS Disease at Baseline n = 11) was 0. The “Best Response PD, patients” value ([6]; CNS Disease at Baseline n = 11) was 1, the “Best Response PR, patients” value ([6]; CNS Disease at Baseline n = 11) was 8a and the “Best Response SD, patients” value ([6]; CNS Disease at Baseline n = 11) was 2. The “ORR (RESIST 1.1)” value ([6]; CNS Disease at Baseline n = 11) was 73%, the “ORR (RESIST 1.1), number of patients” value ([6]; CNS Disease at Baseline n = 11) was 8 and the “tumor change (further disease regression)” value ([6]; EZR-ROS1 G2032R patient, 50 mg, at 16 weeks) was −58%. The “Best Response NE, patients” value [6, 8] was 1c, the “Best Response PD, patients” value [6, 8] was 1 and the “Best Response PR, patients” value [6, 8] was 9a. For the same molecule, the “Best Response SD, patients” value [6, 8] was 7, the “ORR (RESIST 1.1)” value [6, 8] was 50% and the “ORR (RESIST 1.1), number of patients” value [6, 8] was 9. The “Best Response NE, patients” value [6, 9] was 0, the “Best Response PD, patients” value [6, 9] was 0 and the “Best Response PR, patients” value [6, 9] was 7^b. For the same molecule, the “Best Response SD, patients” value [6, 9] was 2, the “ORR (RESIST 1.1)” value [6, 9] was 78% and the “ORR (RESIST 1.1), number of patients” value [6, 9] was 7. The “confirmed partial responses (PR)” value ([6]; among 12 efficacy-evaluable patients with ROS1+ NSCLC, 25-75 mg QD) was 6, the “median time to response” value ([6]; data as of Sep. 13, 2022) was “about 3.6 weeks” and the “response-evaluable patients continuing treatment” value ([6]; data as of Sep. 13, 2022) was 76%. For the same molecule, the “tumor change, ongoing PR pending confirmation” value ([6]; one patient with ROS1 D2033N) was −40%, the “patients with tumor shrinkage” value ([6]; patient subgroup with known ROS1 G2032R resistance mutation) was 100% and the ORR ([6]; patient subgroup with known ROS1 G2032R resistance mutation, data as of Sep. 13, 2022) was 78%. The “tumor change by RECIST 1.1” value ([6]; CD74-ROS1 G2032R, 25 mg daily, after 4 weeks) was −31%, the “tumor change by RECIST 1.1” value ([6]; CD74-ROS1 G2032R, escalated to 75 mg daily, over 5 months, confirmed PR) was −60% and the “tumor change by RECIST 1.1” value ([6]; EZR-ROS1, 25 mg daily, over 7 months) was −48%. For the same molecule, the “tumor change by RECIST 1.1” value ([6]; EZR-ROS1, no ROS1 resistance mutations, 25 mg daily, week 4) was −33%, the “tumor change by RECIST 1.1” value ([6]; EZR-ROS1 G2032R, 50 mg daily, approximately 5 months, confirmed PR) was −58% and the “tumor change by RECIST 1.1” value ([6]; EZR-ROS1 G2032R, 50 mg daily, week 4) was −38%. For the same molecule, the “intracranial PR (patients)” value ([6]; patients with measurable (>10 mm) CNS metastases) was 3/3, the “median duration of treatment” value ([6]; response-evaluable patients with NSCLC, data as of Sep. 13, 2022) was “about 3.6 months” and the ORR ([6]; response-evaluable patients with any CNS disease, data as of Sep. 13, 2022) was 73%. The “Best Response NE, patients” value [6, 10] was 1c, the “Best Response PD, patients” value [6, 10] was 1 and the “Best Response PR, patients” value [6, 10] was 9a. The “Best Response SD, patients” value [6, 10] was 6, the “ORR (RESIST 1.1)” value [6, 10] was 53% and the “ORR (RESIST 1.1), number of patients” value [6, 10] was 9.
